Data reported in patent US9834535B2, “Sulfamate derivative compounds for use in treating or alleviating pain” (Bio-Pharm Solutions Co., Ltd., priority 2013, dated 2017).
Where two headings read alike, the source gives them in different places.

Tested on: CFA-induced pain model
Experiment: Antiallodynic activity on Complete Freund's Adjuvant (CFA)-induced inflammatory pain model (von Frey)
Assay type: in vivo, Sprague-Dawley rats
Settings: rat, intraperitoneal; for CFA model: effect (%) at the concentration administered / response vs control in vivo at 60 mg/kg: 60 mg/kg; for response vs control in vivo at 60 mg/kg / response vs control in vivo at 40 mg/kg / response vs control in vivo at 18 mg/kg: Rattus norvegicus, ip, read-out: CFA model: effect (%) at the concentration administered
Protocol: Male, Sprague-Dawley rats (200-220 g, Nara Bio, Korea) were habituated for 1 week before surgery and allowed free access to food and water throughout the experimentation. Room temperature and humidity were maintained at 24±2° C. and 50±10%, respectively.
CFA-induced inflammatory pain was induced by the procedure of Nagakura et al. (2003) and Gregory P. et al. (2010) with minor modifications. CFA (sigma, USA) was injected in the left plantar with a 100 ul volume under gaseous anesthesia with isoflurane a 4:4 flow ratio of NO2 Sham controls were injected with 100 ul of saline and vehicle controls were identical to CFA infusion model, except for administration of vehicles.
Tactile sensitivity (Mechanical allodynia) was evaluated using von Frey monofilaments before and after treatment, and animals were used withdrawal threshold value was less than 4 g. One week after surgery, CFA-infused animals (n=4˜6), sham-operated animals (n=12), and vehicle-operated animals (n=17) were tested for tactile sensitivity with von Frey monofilaments 3 trials in each animal. All Animals were placed in a stainless steel mashed chamber and habituated for 30 min in the test box. The tactile sensitivity for ipsilateral hind paw was measured using the up-and-down method (Dixon, 1980) with seven von Frey monofilaments (0.4, 1, 2, 4, 6, 8, and 15 g) to 3 trials. Tactile sensitivity test was followed by Dixon's method (Dixon, 1980). The 50% paw withdrawal threshold for each paw was calculated using the following formula: [Xth] log=[vFr] log+ky where [vFr] is the force of the last von Frey used, k=0.2249 which is the average interval (in log units) between the von Frey monofilaments, and y is a value that depends upon the pattern of withdrawal responses (Dixon, 1980).
[…] The test was performed peak time of efficacy (0.5 hr) after compound administration.
The relative values compared to the sham (% control) were calculated and shown in Table 4, which show an antiallodynic effect of the compound of Examples on CFA-induced pain model in rats.

| Compound | response vs control in vivo at 40 mg/kg (0.5 h, 0.5 h) [%] | also measured |
| --- | --- | --- |
| CC1(C)OC(COS(N)(=O)=O)C(c2ccccc2Cl)O1 (mixture of isomers) [Example 3, (5-(2-chlorophenyl)-2,2-dimethyl-1,3-dioxolan-4-yl)methyl sulfamate(SS & RR mixture)] | – | CFA model: effect (%) at the concentration administered (0.5 h): ^#60 (24.0%, 0.5 h) |
| CC1(C)OC(COS(N)(=O)=O)C(c2ccccc2Cl)O1 (mixture of isomers) [Example 4, (5-(2-chlorophenyl)-2,2-dimethyl-1,3-dioxolan-4-yl)methyl sulfamate(SR & RS mixture)] | – | CFA model: effect (%) at the concentration administered (0.5 h): ^#60 (49.9%, 0.5 h) |
| CC1(C)O[C@H](c2cnc(Cl)s2)[C@@H](COS(N)(=O)=O)O1 (stereo in doubt) [Example 166, ((4R,5S)-5-(2-chlorothiazol-5-yl)-2,2-dimethyl-1,3-dioxolan-4-yl)methyl sulfamate] | – | response vs control in vivo at 60 mg/kg (0.5 h, 0.5 h): 30.4% |
| CC1(C)O[C@H](c2ccccc2Cl)[C@@H](COS(N)(=O)=O)O1 [Example 1, ((4R,5R)-5-(2-chlorophenyl)-2,2-dimethyl-1,3-dioxolan-4-yl)methyl sulfamate] | – | response vs control in vivo at 60 mg/kg (0.5 h, 0.5 h): 21.1% |
| CC1O[C@@H](COS(N)(=O)=O)[C@H](c2ccccc2Cl)O1 (stereo partly drawn) [Example 6, ((4S,5S)-5-(2-chlorophenyl)-2-methyl-1,3-dioxolan-4-yl)methyl sulfamate] | – | response vs control in vivo at 60 mg/kg (0.5 h, 0.5 h): 22.4% |
| CCC1(CC)O[C@@H](COS(N)(=O)=O)[C@H](c2ccccc2Cl)O1 [Example 8, ((4S,5S)-5-(2-chlorophenyl)-2,2-diethyl-1,3-dioxolan-4-yl)methyl sulfamate] | 23.3 | – |
| NS(=O)(=O)OC[C@@H]1OC2(CCCC2)O[C@H]1c1ccccc1Cl [Example 10, ((2S,3S)-3-(2-chlorophenyl)-1,4-dioxaspiro[4,4]nonan-2-yl)methyl sulfamate] | – | response vs control in vivo at 60 mg/kg (0.5 h, 0.5 h): 20.7% |
| NS(=O)(=O)OC[C@@H]1OC2(CCCCC2)O[C@H]1c1ccccc1Cl [Example 12, ((2S,3S)-3-(2-chlorophenyl)-1,4-dioxaspiro[4,5]decan-2-yl)methyl sulfamate] | – | response vs control in vivo at 18 mg/kg (0.5 h, 0.5 h): 48.8% |
| CC1(C)O[C@@H](COS(N)(=O)=O)[C@H](c2ccc(Cl)cc2Cl)O1 [Example 40, ((4S,5S)-5-(2,4-dichlorophenyl)-2,2-dimethyl-1,3-dioxolan-4-yl)methyl sulfamate] | – | response vs control in vivo at 60 mg/kg (0.5 h, 0.5 h): 22.5% |
| CC1(C)O[C@@H](COS(N)(=O)=O)[C@H](c2c(Cl)cccc2Cl)O1 [Example 52, ((4S,5S)-5-(2,6-dichlorophenyl)-2,2-dimethyl-1,3-dioxolan-4-yl)methyl sulfamate] | – | response vs control in vivo at 60 mg/kg (0.5 h, 0.5 h): 33.3% |
| CC1(C)O[C@@H](COS(N)(=O)=O)[C@H](c2ccccc2N)O1 [Example 66] | – | response vs control in vivo at 60 mg/kg (1 h, 1 h): 16.5% |
| CCC1(CC)O[C@@H](COS(N)(=O)=O)[C@H](c2ccccc2N)O1 [Example 70, ((4S,5S)-5-(2-aminophenyl)-2,2-diethyl-1,3-dioxolan-4-yl)methyl sulfamate] | 18.8 | – |
| Nc1ccccc1[C@@H]1OC2(CCCCC2)O[C@H]1COS(N)(=O)=O [Example 74, ((2S,3S)-3-(2-aminophenyl)-1,4-dioxaspiro[4,5]decan-2-yl)methyl sulfamate] | – | response vs control in vivo at 60 mg/kg (0.5 h, 0.5 h): 37.1% |
| NS(=O)(=O)OC[C@@H]1OC(=O)O[C@H]1c1ccccc1[N+](=O)[O-] [Example 90, ((4S, 5S)-5-(2-nitrophenyl)-2-oxo-1,3-dioxolan-4-yl)methyl sulfamate] | – | response vs control in vivo at 60 mg/kg (0.5 h, 0.5 h): 15.6% |
| CNc1ccccc1[C@@H]1OC(C)(C)O[C@H]1COS(=O)(=O)NC [Example 104, ((4S, 5S)-5-(2-methylaminophenyl)-2,2-dimethyl-1,3-dioxolan-4-yl)methyl methylsulfamate] | 24.1 | – |
| CCC1(CC)O[C@@H](COS(N)(=O)=O)[C@H](c2ccccc2)O1 [Example 108, ((4S,5S)-5-phenyl-2,2-diethyl-1,3-dioxolan-4-yl)methyl sulfamate] | 37.5 | – |
| NS(=O)(=O)OC[C@@H]1OC2(CCCC2)O[C@H]1c1ccccc1 [Example 110, ((2S,3S)-3-phenyl-1,4-dioxaspiro[4,4]nonan-2-yl)methyl sulfamate] | 42.7 | – |
| NS(=O)(=O)OC[C@@H]1OC2(CCCCC2)O[C@H]1c1ccccc1 [Example 112, ((2S,3S)-3-phenyl-1,4-dioxaspiro[4,5]decan-2-yl)methyl sulfamate] | 41.1 | – |

| Compound | response vs control in vivo at 40 mg/kg (0.5 h, 0.5 h) [%] | also measured |
| --- | --- | --- |
| CC1(C)O[C@H](CCOS(N)(=O)=O)[C@@H](Cc2ccccc2)O1 [Example 114, 2-((4R,5R)-5-benzyl-2,2-dimethyl-1,3-dioxolan-4-yl)ethyl sulfamate] | 29.8 | – |
| CCC1(CC)O[C@H](CCOS(N)(=O)=O)[C@@H](Cc2ccccc2)O1 [Example 116, 2-((4R,5R)-5-benzyl-2,2-diethyl-1,3-dioxolan-4-yl)ethyl sulfamate] | 14.5 | – |
| NS(=O)(=O)OCC[C@H]1OC2(CCCCC2)O[C@@H]1Cc1ccccc1 [Example 120, 2-((2R,3R)-3-benzyl-1,4-dioxaspiro[4,5]decan-2-yl)ethyl sulfamate] | 23 | – |
| CCC1(CC)O[C@H](COS(N)(=O)=O)[C@@H](Cc2ccccc2)O1 [Example 124, ((4R,5R)-5-benzyl-2,2-diethyl-1,3-dioxolan-4-yl)methyl sulfamate] | 34.2 | – |
| NS(=O)(=O)OC[C@H]1OC2(CCCC2)O[C@@H]1Cc1ccccc1 [Example 126, ((2R,3R)-3-benzyl-1,4-dioxaspiro[4,4]nonan-2-yl)methyl sulfamate] | 43.5 | – |
| NS(=O)(=O)OC[C@H]1OC2(CCCCC2)O[C@@H]1Cc1ccccc1 [Example 128, ((2R,3R)-3-benzyl-1,4-dioxaspiro[4,5]decan-2-yl)methyl sulfamate] | – | response vs control in vivo at 18 mg/kg (0.5 h, 0.5 h): 24.5% |
| CC1(C)O[C@@H](CCOS(N)(=O)=O)[C@H](c2ccccc2)O1 [Example 130, 2-((4S,5S)-5-phenyl-2,2-dimethyl-1,3-dioxolan-4-yl)ethyl sulfamate] | 19.4 | – |
| CCC1(CC)O[C@@H](CCOS(N)(=O)=O)[C@H](c2ccccc2)O1 [Example 132, 2-((4S,5S)-5-phenyl-2,2-diethyl-1,3-dioxolan-4-yl)ethyl sulfamate] | 24.8 | – |
| NS(=O)(=O)OCC[C@@H]1OC2(CCCC2)O[C@H]1c1ccccc1 [Example 134, 2-((2S,3S)-3-phenyl-1,4-dioxaspiro[4,4]nonan-2-yl)ethyl sulfamate] | – | response vs control in vivo at 18 mg/kg (0.5 h, 0.5 h): 71.1% |
| NS(=O)(=O)OCC[C@@H]1OC2(CCCCC2)O[C@H]1c1ccccc1 [Example 136, 2-((2S,3S)-3-phenyl-1,4-dioxaspiro[4,5]decan-2-yl)ethyl sulfamate] | – | response vs control in vivo at 18 mg/kg (0.5 h, 0.5 h): 32.4% |
| CCC1(CC)O[C@H](CCOS(N)(=O)=O)[C@@H](Cc2ccccc2Cl)O1 [Example 140, 2-((4R,5R)-5-(2-chlorobenzyl)-2,2-diethyl-1,3-dioxolan-4-yl)ethyl sulfamate] | 37.4 | – |
| NS(=O)(=O)OCC[C@H]1OC2(CCCCC2)O[C@@H]1Cc1ccccc1Cl [Example 144, 2-((2R,3R)-3-(2-chlorobenzyl)-1,4-dioxaspiro[4,5]decan-2-yl)ethyl sulfamate] | 36.6 | – |
| CCC1(CC)O[C@H](COS(N)(=O)=O)[C@@H](Cc2ccccc2Cl)O1 [Example 148, ((4R,5R)-5-(2-chlorobenzyl)-2,2-diethyl-1,3-dioxolan-4-yl)methyl sulfamate] | 15.5 | – |
| NS(=O)(=O)OC[C@H]1OC2(CCCC2)O[C@@H]1Cc1ccccc1Cl [Example 150, ((2R,3R)-3-(2-chlorobenzyl)-1,4-dioxaspiro[4,4]nonan-2-yl)methyl sulfamate] | 17.6 | – |
| NS(=O)(=O)OC[C@H]1OC2(CCCCC2)O[C@@H]1Cc1ccccc1Cl [Example 152, ((2R,3R)-3-(2-chlorobenzyl)-1,4-dioxaspiro[4,5]decan-2-yl)methyl sulfamate] | 34.9 | – |
| CC1(C)O[C@@H](CCOS(N)(=O)=O)[C@H](c2ccccc2Cl)O1 [Example 154, 2-((4S,5S)-5-(2-chlorophenyl)-2,2-dimethyl-1,3-dioxolan-4-yl)ethyl sulfamate] | 32.1 | – |
| CCC1(CC)O[C@@H](CCOS(N)(=O)=O)[C@H](c2ccccc2Cl)O1 [Example 156, 2-((4S,5S)-5-(2-chlorophenyl)-2,2-diethyl-1,3-dioxolan-4-yl)ethyl sulfamate] | 30.8 | – |
